# In US8895756B2, “Bendamustine pharmaceutical compositions” (priority 2005, dated 2014):
# Experiment: HPLC stability of bendamustine (15 mg/mL, mannitol 25.5 mg/mL) in alcohol/water solutions at 5° C.
# Type: physicochemical
# Conditions: 5° C.
# Procedure: A sample of each formulation was analyzed by HPLC after 0, 3, 6 and 24 hours when stored at 5° C.
structure (smiles),measurement,setting,value
"Cl.Cn1c(CCCC(=O)O)nc2cc(N(CCCl)CCCl)ccc21 [bendamustine, 4-{5-[Bis(2-chloroethyl)amino]-1-methyl-2-benzimidazolyl}butyric acid]",Dimer (%),"1.9% Ethanol, 0 hours",0.12%
same,HP1 (%),"1.9% Ethanol, 0 hours",0.64%
same,Purity (% Area),"1.9% Ethanol, 0 hours",99.11 % Area
same,Dimer (%),"1.9% Ethanol, 3 hours",0.14%
same,HP1 (%),"1.9% Ethanol, 3 hours",0.90%
same,Purity (% Area),"1.9% Ethanol, 3 hours",98.83 % Area
same,Dimer (%),"1.9% Ethanol, 6 hours",0.15%
same,HP1 (%),"1.9% Ethanol, 6 hours",1.12%
same,Purity (% Area),"1.9% Ethanol, 6 hours",98.60 % Area
same,Dimer (%),"1.9% Ethanol, 24 hours",0.27%
same,HP1 (%),"1.9% Ethanol, 24 hours",3.41%
same,Purity (% Area),"1.9% Ethanol, 24 hours",96.16 % Area
same,Dimer (%),"5% Butanol, 0 hours",0.13%
same,HP1 (%),"5% Butanol, 0 hours",0.49%
same,Dimer (%),"5% Butanol, 3 hours",0.14%
same,Dimer (%),"5% Butanol, 6 hours",0.14%
same,HP1 (%),"5% Butanol, 6 hours",0.91%
same,Purity (% Area),"5% Butanol, 6 hours",98.76 % Area
same,Dimer (%),"5% Butanol, 24 hours",0.21%
same,HP1 (%),"5% Butanol, 24 hours",2.20%
same,Purity (% Area),"5% Butanol, 24 hours",97.46 % Area
same,Dimer (%),"5% Ethanol, 0 hours",0.12%
same,HP1 (%),"5% Ethanol, 0 hours",0.44%
same,Purity (% Area),"5% Ethanol, 0 hours",99.31 % Area
same,Dimer (%),"5% Ethanol, 3 hours",0.13%
same,HP1 (%),"5% Ethanol, 3 hours",0.64%
same,Purity (% Area),"5% Ethanol, 3 hours",99.10 % Area
same,Dimer (%),"5% Ethanol, 6 hours",0.14%
same,HP1 (%),"5% Ethanol, 6 hours",0.86%
same,Purity (% Area),"5% Ethanol, 6 hours",98.87 % Area
same,Dimer (%),"5% Ethanol, 24 hours",0.25%
same,HP1 (%),"5% Ethanol, 24 hours",2.68%
same,Purity (% Area),"5% Ethanol, 24 hours",96.89 % Area
same,Dimer (%),"5% Iso-propanol, 0 hours",0.13%
same,HP1 (%),"5% Iso-propanol, 0 hours",0.48%
same,Purity (% Area),"5% Iso-propanol, 0 hours",99.21 % Area
same,Dimer (%),"5% Iso-propanol, 3 hours",0.14%
same,HP1 (%),"5% Iso-propanol, 3 hours",0.72%
same,Purity (% Area),"5% Iso-propanol, 3 hours",98.65 % Area
same,Dimer (%),"5% Iso-propanol, 6 hours",0.14%
same,HP1 (%),"5% Iso-propanol, 6 hours",1.02%
same,Purity (% Area),"5% Iso-propanol, 6 hours",98.56 % Area
same,Dimer (%),"5% Iso-propanol, 24 hours",0.26%
same,HP1 (%),"5% Iso-propanol, 24 hours",3.35%
same,Purity (% Area),"5% Iso-propanol, 24 hours",96.14 % Area
same,Dimer (%),"5% Methanol, 0 hours",0.12%
same,HP1 (%),"5% Methanol, 0 hours",0.40%
same,Purity (% Area),"5% Methanol, 0 hours",99.35 % Area
same,Dimer (%),"5% Methanol, 3 hours",0.14%
same,HP1 (%),"5% Methanol, 3 hours",0.70%
same,Purity (% Area),"5% Methanol, 3 hours",98.97 % Area
same,Dimer (%),"5% Methanol, 6 hours",0.14%
same,HP1 (%),"5% Methanol, 6 hours",0.95%
same,Purity (% Area),"5% Methanol, 6 hours",98.66 % Area
same,Dimer (%),"5% Methanol, 24 hours",0.23%
same,HP1 (%),"5% Methanol, 24 hours",2.83%
same,Purity (% Area),"5% Methanol, 24 hours",96.65 % Area
same,Dimer (%),"5% Tert-butanol, 0 hours",0.12%
same,HP1 (%),"5% Tert-butanol, 0 hours",0.41%
same,Purity (% Area),"5% Tert-butanol, 0 hours",99.34 % Area
same,Dimer (%),"5% Tert-butanol, 3 hours",0.14%
same,HP1 (%),"5% Tert-butanol, 3 hours",0.64%
same,Purity (% Area),"5% Tert-butanol, 3 hours",99.10 % Area
same,Dimer (%),"5% Tert-butanol, 6 hours",0.13%
same,HP1 (%),"5% Tert-butanol, 6 hours",0.88%
same,Purity (% Area),"5% Tert-butanol, 6 hours",98.85 % Area
same,Dimer (%),"5% Tert-butanol, 24 hours",0.20%
same,HP1 (%),"5% Tert-butanol, 24 hours",2.09%
same,Purity (% Area),"5% Tert-butanol, 24 hours",97.58 % Area
same,Dimer (%),"5% n-Propanol, 0 hours",0.13%
same,HP1 (%),"5% n-Propanol, 0 hours",0.43%
same,Purity (% Area),"5% n-Propanol, 0 hours",99.25 % Area
same,Dimer (%),"5% n-Propanol, 3 hours",0.15%
same,HP1 (%),"5% n-Propanol, 3 hours",0.66%
same,Purity (% Area),"5% n-Propanol, 3 hours",99.00 % Area
same,Dimer (%),"5% n-Propanol, 6 hours",0.16%
same,HP1 (%),"5% n-Propanol, 6 hours",0.94%
same,Purity (% Area),"5% n-Propanol, 6 hours",98.72 % Area
same,Dimer (%),"5% n-Propanol, 24 hours",0.26%
same,HP1 (%),"5% n-Propanol, 24 hours",2.33%
same,Purity (% Area),"5% n-Propanol, 24 hours",97.24 % Area
same,Dimer (%),"10% Butanol, 0 hours",0.11%
same,HP1 (%),"10% Butanol, 0 hours",0.30%
same,Purity (% Area),"10% Butanol, 0 hours",99.44 % Area
same,Dimer (%),"10% Butanol, 3 hours",0.12%
same,HP1 (%),"10% Butanol, 3 hours",0.49%
same,Purity (% Area),"10% Butanol, 3 hours",99.18 % Area
same,Dimer (%),"10% Butanol, 6 hours",0.12%
same,HP1 (%),"10% Butanol, 6 hours",0.64%
same,Purity (% Area),"10% Butanol, 6 hours",99.03 % Area
same,Dimer (%),"10% Butanol, 24 hours",0.17%
same,HP1 (%),"10% Butanol, 24 hours",1.55%
same,Purity (% Area),"10% Butanol, 24 hours",98.13 % Area
same,Dimer (%),"10% Ethanol, 0 hours",0.11%
same,HP1 (%),"10% Ethanol, 0 hours",0.33%
same,Purity (% Area),"10% Ethanol, 0 hours",99.44 % Area
same,Dimer (%),"10% Ethanol, 3 hours",0.12%
same,HP1 (%),"10% Ethanol, 3 hours",0.48%
same,Purity (% Area),"10% Ethanol, 3 hours",99.28 % Area
same,Dimer (%),"10% Ethanol, 6 hours",0.12%
same,HP1 (%),"10% Ethanol, 6 hours",0.65%
same,Purity (% Area),"10% Ethanol, 6 hours",99.10 % Area
same,Dimer (%),"10% Ethanol, 24 hours",0.18%
same,HP1 (%),"10% Ethanol, 24 hours",1.57%
same,Purity (% Area),"10% Ethanol, 24 hours",98.03 % Area
same,Dimer (%),"10% Iso-propanol, 0 hours",0.12%
same,HP1 (%),"10% Iso-propanol, 0 hours",0.37%
same,Purity (% Area),"10% Iso-propanol, 0 hours",99.32 % Area
same,Dimer (%),"10% Iso-propanol, 3 hours",0.14%
same,HP1 (%),"10% Iso-propanol, 3 hours",0.55%
same,Purity (% Area),"10% Iso-propanol, 3 hours",99.11 % Area
same,Dimer (%),"10% Iso-propanol, 6 hours",0.16%
same,HP1 (%),"10% Iso-propanol, 6 hours",0.75%
same,Purity (% Area),"10% Iso-propanol, 6 hours",98.85 % Area
same,Dimer (%),"10% Iso-propanol, 24 hours",0.21%
same,HP1 (%),"10% Iso-propanol, 24 hours",1.92%
same,Purity (% Area),"10% Iso-propanol, 24 hours",97.68 % Area
same,Dimer (%),"10% Methanol, 0 hours",0.11%
same,HP1 (%),"10% Methanol, 0 hours",0.34%
same,Purity (% Area),"10% Methanol, 0 hours",99.42 % Area
same,Dimer (%),"10% Methanol, 3 hours",0.12%
same,HP1 (%),"10% Methanol, 3 hours",0.59%
same,Purity (% Area),"10% Methanol, 3 hours",99.01 % Area
same,Dimer (%),"10% Methanol, 6 hours",0.12%
same,HP1 (%),"10% Methanol, 6 hours",0.80%
same,Purity (% Area),"10% Methanol, 6 hours",98.86 % Area
same,Dimer (%),"10% Methanol, 24 hours",0.18%
same,HP1 (%),"10% Methanol, 24 hours",1.85%
same,Purity (% Area),"10% Methanol, 24 hours",97.65 % Area
same,Dimer (%),"10% Tert-butanol, 0 hours",0.11%
same,HP1 (%),"10% Tert-butanol, 0 hours",0.30%
same,Purity (% Area),"10% Tert-butanol, 0 hours",99.46 % Area
same,Dimer (%),"10% Tert-butanol, 3 hours",0.12%
same,HP1 (%),"10% Tert-butanol, 3 hours",0.48%
same,Purity (% Area),"10% Tert-butanol, 3 hours",99.26 % Area
same,Dimer (%),"10% Tert-butanol, 6 hours",0.13%
same,HP1 (%),"10% Tert-butanol, 6 hours",0.69%
same,Purity (% Area),"10% Tert-butanol, 6 hours",99.05 % Area
same,Dimer (%),"10% Tert-butanol, 24 hours",0.19%
same,HP1 (%),"10% Tert-butanol, 24 hours",1.64%
same,Purity (% Area),"10% Tert-butanol, 24 hours",98.04 % Area
same,Dimer (%),"10% n-Propanol, 0 hours",0.15%
same,HP1 (%),"10% n-Propanol, 0 hours",0.33%
same,Purity (% Area),"10% n-Propanol, 0 hours",99.34 % Area
same,Dimer (%),"10% n-Propanol, 3 hours",0.14%
same,HP1 (%),"10% n-Propanol, 3 hours",0.48%
same,Purity (% Area),"10% n-Propanol, 3 hours",99.17 % Area
same,Dimer (%),"10% n-Propanol, 6 hours",0.16%
